Reference: article PMC10766984, “Josephin domain containing 2 (JOSD2) promotes lung cancer by inhibiting LKB1 (Liver kinase B1) activity” (Signal Transduction and Targeted Therapy, 2024)
pIC50: −log10 of the molar value. Where “and” joins values, the source holds several entries; their conditions need not be identical. Identical values can stand only once.

Assays:
[1] = tested on: A549 harboring LKB1-null/WT/3KR; assay: Proliferation assay in cells harboring LKB1-null/WT/3KR; type: cell-based; settings: series of concentrations, 72 h
Text: (§1) (a) Proliferation assay in LKB1-null cells (means ± SD, n=3). […] Red dashed line indicates 50% of cell survival. (b) Proliferation assay in A549 harboring LKB1-null/WT/3KR (Top) and immunoblotting analysis showing the overexpression efficiency of LKB1-WT/3KR (Bottom). […] (means ± SD, n=3). (c) Representative images of in situ TUNEL assay of cancer cells inside tumor mass with or without JOSD2 inhibitor treatment. (means ± SD, n=3). n.s: P > 0.05; *P < 0.05; **P < 0.01.

[2] = tested on: NCI-H1299 xenografted tumors; assay: TUNEL assay in xenografted tumors; type: in vivo, BALB/c-Nude mice; settings: oral administration, in situ TUNEL
Text: Apoptosis in xenografted tumors was detected by a TUNEL assay kit (Beyotime Biotechnology, Shanghai, China), according to the manufacturer's protocols. Images were captured by a fluorescence microscope.
as §1

NCI-H292 cells = assay: Proliferation assay (SRB), 72 h; type: cell-based; settings: Homo sapiens, LKB1-WT
Description: (§2) The indicated cell lines were treated with indicated compounds at a series of concentrations for 72 h, followed by cell proliferation assay and colony formation assay. Black dashed line indicates 50% of cell survival.
(§3) For cell proliferation assay, cells infected with lentiviruses packaged indicated plasmids were seeded indicated number cells per well in 96-well plates. Cell number (absorbance) was then estimated by the sulforhodamine B (SRB) (Sigma-Aldrich, #230162) assay and the absorbance of the individual wells was determined at the optical density of 515 nm. For colony formation assay, cells infected with lentiviruses packaged indicated plasmids were seeded indicated number cells per well in 6-well plates. Two weeks later, cells were stained with SRB and the numbers of colonies having more than 50 cells were counted.

NCI-H358 cells = assay: Proliferation assay (SRB), 72 h; type: cell-based; settings: Homo sapiens, LKB1-WT
Description: as §2, §3

PC-9 cells = assay: Proliferation assay (SRB), 72 h; type: cell-based; settings: Homo sapiens, LKB1-WT
Description: as §2, §3

NCI-H1299 cells [3] = assay: Proliferation assay (SRB), 72 h; type: cell-based; settings: Homo sapiens, LKB1-WT
Description: as §2, §3

[4] = tested on: LKB1-null NSCLC cell lines; assay: Proliferation assay, panel of five LKB1-null cell lines; type: cell-based; settings: 72 h
Description: as §3, §1

NCI-H23 cells = assay: Proliferation assay in LKB1-null cells, 72 h; type: cell-based; settings: Homo sapiens
Description: as §3, §1

A549 cells = assay: Proliferation assay in LKB1-null cells, 72 h; type: cell-based; settings: Homo sapiens
Description: as §3, §1

NCI-H460 cells = assay: Proliferation assay in LKB1-null cells, 72 h; type: cell-based; settings: Homo sapiens
Description: as §3, §1

NCI-H1395 cells = assay: Proliferation assay in LKB1-null cells, 72 h; type: cell-based; settings: Homo sapiens
Description: as §3, §1

NCI-H838 cells = assay: Proliferation assay in LKB1-null cells, 72 h; type: cell-based; settings: Homo sapiens
Description: as §3, §1

LKB1-WT NSCLC cell lines = assay: Proliferation assay, panel of LKB1-WT cell lines; type: cell-based; settings: average of four LKB1-WT cell lines, 72 h
Description: as §2, §3

NCI-H1299 cells [5] = assay: Apoptosis, IB of cell lysates after 72 h; type: cell-based; settings: series of concentrations
Text: (§4) (means ± SD, n=3). […] (means ± SD, n=3). […] (means ± SD, n=3). […] (means ± SD, n=3).

Ataxin-3L = target: T1, Ataxin-3L (Homo sapiens, UniProt Q9H3M9); assay: In vitro ubiquitin-AMC assay with GST-Ataxin-3L; type: biochemical; settings: incubated with GST-Ataxin-3L at 37 °C for 30 min
T1 sequence (Q9H3M9 1-355): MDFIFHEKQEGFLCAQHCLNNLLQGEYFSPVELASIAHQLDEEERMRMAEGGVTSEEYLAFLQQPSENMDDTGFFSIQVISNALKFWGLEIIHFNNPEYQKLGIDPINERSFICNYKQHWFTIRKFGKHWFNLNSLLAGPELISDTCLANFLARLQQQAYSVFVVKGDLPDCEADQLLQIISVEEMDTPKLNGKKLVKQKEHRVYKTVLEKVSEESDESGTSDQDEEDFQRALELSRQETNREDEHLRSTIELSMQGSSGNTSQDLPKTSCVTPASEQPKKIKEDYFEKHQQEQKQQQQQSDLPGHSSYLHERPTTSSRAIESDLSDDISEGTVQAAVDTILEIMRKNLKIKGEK
Text: as §4

JOSD1 = JOSD1 (Homo sapiens, UniProt Q15040); assay: In vitro ubiquitin-AMC assay with GST-JOSD1; type: biochemical; settings: incubated with GST-JOSD1 at 37 °C for 30 min
Text: as §4

Ataxin-3 = Ataxin-3 (Homo sapiens, UniProt P54252); assay: In vitro ubiquitin-AMC assay with GST-Ataxin-3; type: biochemical; settings: incubated with GST-Ataxin-3 at 37 °C for 30 min
Ataxin-3, sequence (P54252 whole entry): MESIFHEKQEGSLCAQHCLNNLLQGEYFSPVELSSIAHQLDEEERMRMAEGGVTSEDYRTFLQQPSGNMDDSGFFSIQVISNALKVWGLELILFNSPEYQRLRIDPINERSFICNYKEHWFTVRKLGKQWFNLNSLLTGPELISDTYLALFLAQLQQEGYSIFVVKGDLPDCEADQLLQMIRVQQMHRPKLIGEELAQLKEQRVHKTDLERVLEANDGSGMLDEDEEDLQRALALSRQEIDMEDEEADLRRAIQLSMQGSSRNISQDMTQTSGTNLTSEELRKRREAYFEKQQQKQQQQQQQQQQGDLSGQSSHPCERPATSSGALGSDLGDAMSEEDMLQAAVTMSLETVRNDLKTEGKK
Text: as §4

[6] = tested on: NCI-H1299 xenografted tumors; assay: Antitumor activity of HY041004 in vivo; set-up: species or system BALB/c-Nude mice; settings: for Tumor Weight: at the endpoint; for T/C: RTVtreated / RTVcontrol
Description: as §2
Female BALB/c-Nude mice (4-5 weeks) were subcutaneously transplanted with 1 mm^3 NCI-H1299 xenograft tumor mass. […] The tumor volume was measured by a caliper every 2 days as soon as the tumor reached a palpable size. Relative tumor volume (RTV) was calculated by (RTV=TVt / TV0, where TV0 is the tumor volume measured when starting treatment). The T/C value was calculated as RTVtreated / RTVcontrol.

IC50 (NCI-H292 cells): 0.14 µM | IC50 (NCI-H358 cells): 0.13 µM | IC50 (PC-9 cells): 0.12 µM | IC50 (NCI-H1299 cells [3]): 0.1 µM | IC50 (NCI-H23 cells): 0.73 µM | IC50 (A549 cells): 0.46 µM | IC50 (NCI-H460 cells): 0.24 µM | IC50 (NCI-H1395 cells): 0.46 µM | IC50 (NCI-H838 cells): 0.72 µM | pIC50 (JOSD1): 6.33 | melting point: 172 to 174 °C
Structure (SMILES): O=C1c2ccncc2C(=O)c2c1nnn2Cc1cc(F)cc(Cl)c1 [HY041004, 3-(3-chloro-5-fluorobenzyl)-3H-[1,2,3] triazolo[4,5-g]isoquinoline-4,9-dione]
Anti-proliferative effect upon exogenous introduction of LKB1-WT, but not 3KR [1]: strengthen the anti-proliferative effect | Intratumor cell apoptosis [2]: induced intratumor cell apoptosis | IC50 ([4]; average of five LKB1-null cell lines): 0.52 µM | Susceptibility of LKB1-null cell lines ([4]; compared with LKB1 wild-type NSCLC cell lines): less than that in LKB1 wild-type NSCLC cell lines | IC50 (LKB1-WT NSCLC cell lines): 0.122 µM | Cell apoptosis (NCI-H1299 cells [5]): induced cell apoptosis in a concentration-dependent manner | pIC50 (Ataxin-3L): 4.89 | pIC50 (Ataxin-3): 5.27 | Tumor Weight ([6]; 50 mg/kg orally twice daily): 1.181 g and 1.18 ± 0.49 g | T/C ([6]; 50 mg/kg orally twice daily): 64.71% | Tumor Weight ([6]; 100 mg/kg orally twice daily): 0.901 g and 0.90 ± 0.23 g | T/C ([6]; 100 mg/kg orally twice daily): 43.88%
